Test results taken from article PMC6746686, “Physicochemical Profiling of Baicalin Along with the Development and Characterization of Cyclodextrin Inclusion Complexes” (AAPS PharmSciTech, 2019).
Values after ≈ are worked out from the molar mass of the structure shown. Read-outs that look alike come from different tables or passages of the source.

Assays:
[1] = NMR-pH titrations (acid dissociation constants, species distribution); type: physicochemical; conditions: for pKa: aqueous solution, 95% (v/v) H2O and 5% (v/v) D2O; for mole fraction of the monoanionic form ([H2B]−): calculated from pKa values
Description: NMR-pH titrations were performed on a Varian VNMRS spectrometer (600 MHz for ^1H). Spectra were recorded at 25°C. Titrations were carried out in solutions containing 95% (v/v) H2O and 5% (v/v) D2O, with the addition of small amounts of 0.1 M HCl and NaOH. One molar NaOH and solid NaOH crystals were also used to achieve highly basic pH values. The ionic strength was kept at 0.15 M by the presence of NaCl. The concentration of baicalin and its methyl ester was 1.0 × 10^−3 M and ascorbic acid was used in large excess (5.0 × 10^−3 M) to prevent the oxidation of the studied catechol molecules in alkaline solutions. The sample volume was 600 μl. NMR spectra were referenced to the internal standard DSS (sodium 3-(trimethylsilyl)-1-propanesulfonate). The water signal was suppressed by presaturation. Spectra were processed with VNMRj 3.2a software. pH values were read on a Metrohm 2.780.0010 precision pH meter with a 6.0258.600 Unitrode glass Pt 1000 electrode (Metrohm AG, Herisau, Switzerland). The pH-potentiometric system was calibrated using pH 1.68, 4.01, 6.87, 9.18 aqueous buffer solutions. In highly basic solutions, pH was measured by NMR-pH indicator molecules as well to avoid the uncertainty of the glass electrode pH-meter readings in such solutions [24]. The concentration of these pH indicators was 1.0 mM. For the analysis of NMR titration curves of proton chemical shifts versus pH, the software Origin Pro 8 (OriginLab Corp., Northampton,MA, USA) was used.
In baicalin, there are 12 protons connected to carbon atoms, but in ^1H NMR spectra, only the singlets of H8 and H3 on ring A and the doublet of the aromatic H2’,6′ protons can be easily assigned, while the other aromatic protons occur in complex spectrum of multiplets. The protons of the monosaccharide unit overlap with each other and with the signals of the antioxidant ascorbic acid. The suppression of the large water signal also interferes with the observation of certain NMR signals. Thus, during the NMR-pH titration, we followed the above-mentioned three chemical shift signal sets.
Since protonation processes are instantaneous on the NMR chemical shift time scale, the observed chemical shift (δ^obsd) of a certain nucleus can be expressed as a weighted average of chemical shifts of the non-, mono-, di- and triprotonated forms of baicalin (B):2 δ^obsd=δB^3‐xB^3‐+δHB^2‐xHB^2‐+δH2B^−xH2B^−+δH3BxH3B where weighting factors are mole fractions that can be expressed in terms of stepwise protonation macroconstants and the actual hydrogen ion concentration. For example, xH2B^− is:3 xH2B^−=K1K2H^+^2/1+K1H^++K1K2H^+^2+K1K2K3H^+^3
Combining and rearranging Eqs. (2) and (3) yield Eq. (4) that can be directly fitted to the ^1H-NMR titration curve of each nucleus observed.4 δ^obsd=δB^3‐+δHB^2‐K1H^++δH2B^−K1K2H^+^2+δH3BK1K2K3H^+^3/1+K1H^++K1K2H^+^2+K1K2K3H^+^3
The logarithms of the obtained protonation constants correspond to the negative logarithms of dissociation constants, namely pKa1 = logK3, pKa2 = logK2 and pKa3 = logK1 [28].

[2] = set-up: method as in PMID 26579386; conditions: cited from earlier work
[3] = Thermodynamic solubility by saturation shake-flask method; type: physicochemical; conditions: 37°C
Description: A total of 0.94 g of 1 M HCl and 0.35 g of NaCl were diluted and dissolved to 1000 ml with distilled water and used as simulated gastric fluid (SGF) with pH 1.2. This medium served as solvent for the measurement of intrinsic solubility of baicalin.
A total of 250 ml of 0.2 M […] and 77 ml of 0.2 M NaOH were homogenized and diluted to 1000 ml with distilled water. This medium served as simulated intestinal fluid (SIF) with pH 6.8.
Blank buffer of FaSSGF pH 1.6 (1.99 g NaCl dissolved in 900 ml distilled water, adjusted the pH to 1.6 with 1 M HCl and filled to 1000 ml with distilled water) and phosphate buffer pH 6.5 (0.42 g NaOH pellets + 3.95 g NaH2PO4 monohydrate + 6.19 g NaCl dissolved in 900 ml distilled water, adjusted the pH to 6.5 with either 1 M NaOH or 1 M HCl and filled to 1000 ml with distilled water) were prepared as stock solutions.
FaSSGF was produced from blank buffer of FaSSGF pH 1.6, which was completed by 0.08 mM sodium taurocholate, 0.02 mM lecithin, 0.1 mg/ml pepsin and has osmolality of 120 ± 2.5 mOsmol/kg. To obtain the FaSSIF medium, 100 ml of blank phosphate buffer (pH 6.5) was made up by 3 mM sodium taurocholate and 0.75 mM lecithin. FaSSIF has an osmolality of 270 ± 10 mOsmol/kg.
The thermodynamic solubility of baicalin in various media was determined by saturation shake-flask method based on the method of Baka et al.. Briefly, 10 mg of baicalin was added to 5 ml of each solvent in sealed vials. All samples were stirred (approx. 500 rpm) and thermostated (IKA RT-5 power heatable magnetic stirrer, IKA Work Inc., USA) at 37 ± 0.5°C for 24 h allowing it to achieve thermodynamic equilibrium. After this period, 24 h of sedimentation cycle was adopted without stirring at 37 ± 0.5°C. To improve the efficacy of phase-separation, the saturated supernatant of samples was centrifuged at 14,000 rpm for 15 min (Herolab MicroGen 16, Herolab GmbH, Wiesloch, Germany). The aliquots (250 μl) taken for solubility experiments were suitably diluted with blank buffers and the absorbance was measured at λ = 316 nm by UV spectroscopy (Agilent 8453 UV-Visible Spectrophotometer, Agilent Technologies Ltd., USA). […] Ideally, λmax selected for the analysis of drug should not show any interference due to solvents and excipients present in the dissolution medium. […] In the solubility study, thus, λmax 316 nm was selected for the quantification of baicalin. […] All experiments were repeated three times and results were calculated from the linear calibration curve of baicalin in each media. Data are expressed as mean ± SD (μg/ml).

[4] = set-up: method as in PMID 16107266; conditions: cited from earlier work
[5] = Distribution coefficient measurements by the stir-flask method (octanol/water); type: physicochemical
Description: The distribution coefficients were calculated from the absorbance of the molecules before and after partitioning at several octanol/water phase ratios. For the pH control, a pH 7.40 phosphate buffer and a standardized HCl solution were used, with an ionic strength of 0.15 M in both cases. The pH of the phosphate buffer was measured using a Metrohm 6.0204.100 combined pH glass electrode and a Metrohm 780 pH meter. The concentration change of baicalin was followed by UV-absorbance measurements. […] Then, the two phases were intensively stirred for 2 h in thermostated double-walled glass cells at constant temperature (25 ± 0.1°C). After separation of the equilibrated phases and centrifugation, the concentration of baicalin was determined by UV spectrophotometry (Perkin-Elmer Lambda 15) at several values at 279 nm (λmax). The distribution coefficients were calculated from the absorbance of baicalin before and after partitioning. […]
For baicalin, the pH-dependent distribution coefficient is the sum of four products:5 DpH=ΣxiPi=xB^3‐PB^3‐+xHB^2‐PHB^2‐+xH2B^−PH2B^−+xH3BPH3B where xi mole fractions are the pH-dependent quantities, while Pi parameters are the pH-independent ones. […]
The mole fraction data can be calculated similarly as shown in Eq. (3); thus, the partition coefficient of the anionic form can be obtained. […]

[6] = set-up: method as in PMID 19722585; conditions: cited from earlier work
[7] = Stability in alkaline solution observed by NMR; type: physicochemical
Excerpt: Baicalin has three acidic functional moieties, one carboxyl and two phenolic hydroxyl groups. Proton transfer processes can be regarded either from the aspect of dissociation or association. Because of the acidic nature of baicalin, these processes will be characterized here in terms of acid dissociation constants (Ka). Carboxylic acids are typically orders of magnitude stronger than phenols. The determination of baicalin dissociation constants is hampered by its poor water solubility and sensitivity of oxidation of the catechol structure on its A ring. The acid/base properties of baicalin have been investigated earlier, resulting in pKa1, pKa2 and pKa3 values of 5.05, 7.6 and 10.1, respectively. […] We decided to undertake the characterization of baicalin by NMR-pH titrations, where the molecule was protected from oxidation by the antioxidant ascorbic acid up to pH ≈ 13.
NMR-pH titrations were performed on a Varian VNMRS spectrometer (600 MHz for ^1H). Spectra were recorded at 25°C. […] Spectra were processed with VNMRj 3.2a software. pH values were read on a Metrohm 2.780.0010 precision pH meter with a 6.0258.600 Unitrode glass Pt 1000 electrode (Metrohm AG, Herisau, Switzerland). […] In highly basic solutions, pH was measured by NMR-pH indicator molecules as well to avoid the uncertainty of the glass electrode pH-meter readings in such solutions [24]. […]

[8] = set-up: method as in PMID 19722585; conditions: reported as "1.27 (pH 7)"; cited from earlier work
[9] = NMR-pH titration, 25°C, ionic strength 0.15 M, ascorbic acid as antioxidant
[10] = UV-pH titration, called highly dubious by the authors

COC(=O)[C@H]1O[C@@H](Oc2cc3oc(-c4ccccc4)cc(=O)c3c(O)c2O)[C@H](O)[C@@H](O)[C@@H]1O [Baicalin methyl ester]
pKa1 (acid dissociation constant) [1, 9]: 8.78 | pKa2 (acid dissociation constant) [1, 9]: > 14

O=C(O)[C@H]1O[C@@H](Oc2cc3oc(-c4ccccc4)cc(=O)c3c(O)c2O)[C@H](O)[C@@H](O)[C@@H]1O [Baicalin, 7-D-glucuronic acid-5,6-dihydroxyflavone]
water solubility [2]: 54 µg/mL (≈ 121 µM) | solubility thermodynamic at 24 h ([3]; distilled water (Aqua dest.), read-out: Thermodynamic solubility): 67 µg/mL (≈ 150 µM) | solubility thermodynamic at 24 h ([3]; fassgf or other biorelevant, thermodynamic from solid, pH 1.6 FaSSGF, read-out: Thermodynamic solubility): 33.2 µg/mL (≈ 74.4 µM) | solubility thermodynamic at 24 h ([3]; simulated gastric fluid (SGF), simulated gastric fluid, thermodynamic from solid, pH 1.2 SGF, read-out: Thermodynamic solubility (intrinsic solubility)): 11.6 µg/mL (≈ 26.1 µM) | solubility thermodynamic at 24 h ([3]; simulated intestinal fluid (SIF), fassgf or other biorelevant, thermodynamic from solid, pH 6.8 SIF, read-out: Thermodynamic solubility): 10500 µg/mL (≈ 23500 µM) | solubility thermodynamic at 24 h ([3]; thermodynamic from solid, pH 6.5 FaSSIF, read-out: Thermodynamic solubility): 8110 µg/mL (≈ 18200 µM) | absolute bioavailability [4]: 2.2 ± 0.2% | difference between the lipophilicity of the neutral and the anionic form [5]: 2.56 log unit | logD at 2 h ([5]; standardized 0.15 M HCl solution, 25°C, SD in brackets, read-out: log D (characterizes the log P of the neutral form)): 1.28 | pKa ([1]; NMR-pH titration, 25°C, ionic strength 0.15 M, ascorbic acid as antioxidant, read-out: pKa1 (acid dissociation constant)): 4.21 | pKa ([1]; NMR-pH titration, 25°C, ionic strength 0.15 M, ascorbic acid as antioxidant, read-out: pKa2 (acid dissociation constant)): 8.56 | pKa ([1]; NMR-pH titration, 25°C, ionic strength 0.15 M, ascorbic acid as antioxidant, read-out: pKa3 (acid dissociation constant)): > 14 | mole fraction of the monoanionic form ([H2B]−) ([1]; pH 6.8 SIF): 98.0% | relative concentration of the dianionic form (HB2−) ([1]; pH 7.40, calculated from pKa values): 6.5% | mole fraction of the monoanionic form ([H2B]−) ([1]; pH of blood (pH 7.40)): 93.5% | pKa2 [6, 10]: 7.6 | pKa3 [6, 10]: 10.1 | pKa1 ([6]; earlier investigation): 5.05 | stability in alkaline solution (decomposition) ([7]; NMR investigations, without antioxidant): rapidly decomposes above pH 9 | stability in alkaline solution (oxidation) ([7]; in the presence of a large excess of ascorbic acid): rapid oxidation of baicalin above pH 13 | log P [8]: 1.27
